Measured values published in patent USRE37781E1, “Substituted cyclic carbonyls and derivatives thereof useful as retroviral protease inhibitors” (DuPont Pharmaceuticals Company, priority 1991, dated 2002).
Where two headings read alike, the source gives them in different places.

Legend:
[1] = system: HIV-1 (RF) in MT-2 cells; assay: microbe, parasite or virus in culture; assay type: cell-based; conditions: Table 2d
Description: DNA Plasmids and in vitro RNA transcripts:
Plasmid pDAB 72 containing both gag and pol sequences of BH10 (bp 113-1816) cloned into PTZ 19R was prepared according to Erickson-Viitanen et al. AIDS Research and Human Retroviruses 1989, 5, 577. The plasmid was linearized with Bam HI prior to the generation of in vitro RNA transcripts using the Riboprobe Gemini system II kit (Promega) with T7 RNA polymerase. Synthesized RNA was purified by treatment with RNase free DNAse (Promega), phenol-chloroform extraction, and ethanol precipitation. RNA transcripts were dissolved in water, and stored at −70° C. The concentration of RNA was determined from the A260.
Biotinylated capture probes were purified by HPLC after synthesis on an Applied Biosystems (Foster City, Calif.) DNA synthesizer by addition of biotin to the 5′ terminal end of the oligonucleotide, using the biotin-phosphoramidite reagent of Cocuzza, Tet. Lett. 1989, 30, 6287. The gag biotinylated capture probe (5-biotin-[…] 3′) was complementary to nucleotides 889-912 of HXB2 and the pol biotinylated capture probe (5′-biotin-[…] 3′) was complementary to nucleotides 2374-2395 of HXB2. Alkaline phosphatase conjugated oligonucleotides used as reporter probes were prepared by Syngene (San Diego, Calif.). The pol reporter probe (5′ […] 3′) was complementary to nucleotides 2403-2425 of HXB2. The gag reporter probe (5′ […] 3′) was complementary to nucleotides 950-973 of HXB2. All nucleotide positions are those of the GenBank Genetic Sequence Data Bank as accessed through the Genetics Computer Group Sequence Analysis Software Package (Devereau Nucleic Acids Research 1984, 12, 387). The reporter probes were prepared as 0.5μM stocks in 2× SSC (0.3M NaCl, 0.03M sodium citrate), 0.05M Tris pH 8.8, 1 mg/mL BSA. The biotinylated capture probes were prepared as 10 μM stocks in water.
Streptavidin coated plates:
Nunc-immunomodule microtiter plate strips were coated by addition of 200 μL of streptavidin (30 ug/mL, Scripps, La Jolla, Calif.) in freshly prepared 10 mM sodium carbonate (pH 9.6). Plates were incubated overnight at 4° C. Streptavidin solution was aspirated from the wells and a blocking buffer composed of phosphate buffered saline (PBS), 20 mg/mL bovine serum albumin (crystalline, nuclease and protease free, Calbiochem) and 100 mg/mL lactose (Sigma) was added to the plates for 3 hrs at room temperature. Blocking buffer was removed from the wells, which were allowed to dry overnight at room temperature and subsequently stored at 4° C. in zip lock bags with desiccant. For the majority of the compound evaluation experiments, streptavidin coated plates were obtained from Du Pont Biotechnology Systems (Boston, Mass.).
MT-2, CEM, and H9 cells were maintained in RPMI 1640 supplemented with 5% fetal calf serum (FCS), 2 mM L-glutamine and 50 μg/mL gentamycin, all from Gibco. Laboratory strains of HIV-1 (RF, MN and IIIB) were propagated in H9 cells in the same medium. Virus stocks were prepared approximately 1 month after acute infection of H9 cells by clarification of the tissue culture medium and storage of aliquots at −70° C. […] Each aliquot of virus stock used for infection was thawed only once. In some cases, infected H9 cells were shifted to Dulbecco's modified Eagle's medium 3-10 days before collection of virus in order to generate virus stocks in medium with low biotin content. Clinical isolates of HIV that had been passaged once in MT-2 cells were used to infect fresh MT-2 cells in RPMI medium. Three days after infection, cells were pelleted, resuspended and culture continued in Dulbecco's modified Eagle's medium as above. Virus stocks of clinical isolates were prepaid 10-15 days after infection when cytopathic effects were apparent in the culture.

[2] = target: single-chain tethered dimer of HIV protease (Human immunodeficiency virus 1, UniProt P04585); assay: biochemical; assay type: biochemical; design: fused on or other part: A second copy of the same protease unit is joined to the first by a short peptide tether, giving one polypeptide
[3] = Table 2d; HIV protease inhibition, HPLC method; read-out: HPLC K1
[4] = Human immunodeficiency virus 1, MT2, 48 h, HIV RNA assay, read-out: IC90
[5] = read-out: HPLC K1; Table 2d; HIV protease inhibition, HPLC method

| Structure (SMILES) | IC90 ([1]; HIV RNA assay) | Ki [2, 3] [nM] | other results |
| --- | --- | --- | --- |
| Nc1cccc(CN2C(=O)N(Cc3ccc(CO)cc3)C(Cc3ccccc3)C(O)C(O)C2Cc2ccccc2)c1 (stereo not shown) [15A] |  |  | IC90 ([1]; Human immunodeficiency virus 1, MT2, 48 h, class symbols, read-out: IC90): < 10 µg/mL; Ki ([2]; read-out: HPLC K1; Table 2d; class symbols): < 10 nM |
| CCCNC(=NO)c1cccc(CN2C(=O)N(Cc3cccc(C(=NO)NCCC)c3)C(Cc3ccccc3)C(O)C(O)C2Cc2ccccc2)c1 (stereo not shown) [15BA] | +++ (+++=<10 μg/mL) | < 10 |  |
| O=C1N(Cc2ccc(O)cc2)C(Cc2ccccc2)C(O)C(O)C(Cc2ccccc2)N1Cc1cccc(-c2cc[nH]n2)c1 (stereo not shown) [15CA] |  |  | IC90 [1, 4]: < 10 µg/mL; Ki [2, 5]: < 10 nM |
| O=C(NCc1ccccn1)c1cccc(CN2C(=O)N(Cc3cccc(-c4cc[nH]n4)c3)C(Cc3ccccc3)C(O)C(O)C2Cc2ccccc2)c1 (stereo not shown) [15CB] | +++ (+++=<10 μg/mL) | < 10 |  |
| CC(C)(CO)CCCCN1C(=O)N(CCCCC(C)(C)CO)C(Cc2ccccc2)C(O)C(O)C1Cc1ccccc1 (stereo not shown) [15CP] | +++ (+++=<10 μg/mL) | 10 to 1000 |  |
| O=C1N(Cc2ccc3[nH]cnc3c2)C(Cc2ccccc2)C(O)C(O)C(Cc2ccccc2)N1Cc1ccc2[nH]cnc2c1 (stereo not shown) [15CS] | ++ (++=10 to 100 μg/mL) | 10 to 1000 |  |
| O=C1N(Cc2ccc3[nH]nnc3c2)C(Cc2ccccc2)C(O)C(O)C(Cc2ccccc2)N1Cc1ccc2[nH]nnc2c1 (stereo not shown) [15CT] | +++ (+++=<10 μg/mL) | < 10 |  |
| O=C1N(Cc2ccc3c(c2)NS(=O)(=O)N3)C(Cc2ccccc2)C(O)C(O)C(Cc2ccccc2)N1Cc1ccc2c(c1)NS(=O)(=O)N2 (stereo not shown) [15CW] | ++ (++=10 to 100 μg/mL) | < 10 |  |
| O=C1Nc2ccc(CN3C(=O)N(Cc4ccc5c(c4)C(=NO)C(=O)N5)C(Cc4ccccc4)C(O)C(O)C3Cc3ccccc3)cc2C1=NO (stereo not shown) [15DB] | +++ (+++=<10 μg/mL) | < 10 |  |
| O=C1N(Cc2ccc3oc(=O)[nH]c3c2)C(Cc2ccccc2)C(O)C(O)C(Cc2ccccc2)N1Cc1ccc2oc(=O)[nH]c2c1 (stereo not shown) [15DC] | +++ (+++=<10 μg/mL) | < 10 |  |
| O=C1Cc2cc(CN3C(=O)N(Cc4ccc5c(c4)CC(=O)N5)C(Cc4ccccc4)C(O)C(O)C3Cc3ccccc3)ccc2N1 (stereo not shown) [15DD] | +++ (+++=<10 μg/mL) | < 10 |  |
| Nc1n[nH]c2ccc(CN3C(=O)N(Cc4ccc5[nH]nc(N)c5c4)C(Cc4ccccc4)C(O)C(O)C3Cc3ccccc3)cc12 (stereo not shown) [15DF] | +++ (+++=<10 μg/mL) | < 10 |  |
| Nc1noc2ccc(CN3C(=O)N(Cc4ccc5onc(N)c5c4)C(Cc4ccccc4)C(O)C(O)C3Cc3ccccc3)cc12 (stereo not shown) [15DG] | +++ (+++=<10 μg/mL) | < 10 |  |
| CNc1n[nH]c2ccc(CN3C(=O)N(Cc4ccc5[nH]nc(NC)c5c4)C(Cc4ccccc4)C(O)C(O)C3Cc3ccccc3)cc12 (stereo not shown) [15DH] | +++ (+++=<10 μg/mL) | < 10 |  |
| O=C1N(Cc2ccc3[nH]nc(Cl)c3c2)C(Cc2ccccc2)C(O)C(O)C(Cc2ccccc2)N1Cc1ccc2[nH]nc(Cl)c2c1 (stereo not shown) [15DI] | +++ (+++=<10 μg/mL) | < 10 |  |
| CCNc1n[nH]c2ccc(CN3C(=O)N(Cc4ccc5[nH]nc(NCC)c5c4)C(Cc4ccccc4)C(O)C(O)C3Cc3ccccc3)cc12 (stereo not shown) [15DJ] | +++ (+++=<10 μg/mL) | < 10 |  |
| O=C1N(Cc2ccccc2)C(Cc2ccccc2)C(O)C(O)C(Cc2ccccc2)N1Cc1ccc2[nH]nnc2c1 (stereo not shown) [15DN] | +++ (+++=<10 μg/mL) | < 10 |  |
| O=C1N(Cc2ccc3ccccc3c2)C(Cc2ccccc2)C(O)C(O)C(Cc2ccccc2)N1Cc1ccc2[nH]nnc2c1 (stereo not shown) [15DO] | +++ (+++=<10 μg/mL) | < 10 |  |
| O=C1N(Cc2ccc3[nH]nnc3c2)C(Cc2ccccc2)C(O)C(O)C(Cc2ccccc2)N1CC1CC1 (stereo not shown) [15DP] | +++ (+++=<10 μg/mL) | < 10 |  |

| Structure (SMILES) | IC90 ([1]; HIV RNA assay) | Ki [2, 3] [nM] | other results |
| --- | --- | --- | --- |
| O=C1N(Cc2cccc(O)c2)C(Cc2ccccc2)C(O)C(O)C(Cc2ccccc2)N1Cc1ccc2[nH]nnc2c1 (stereo not shown) [15DR] | +++ (+++=<10 μg/mL) | < 10 |  |
| N#CCc1cccc(CN2C(=O)N(Cc3cccc(CC#N)c3)C(Cc3ccccc3)C(O)C(O)C2Cc2ccccc2)c1 (stereo not shown) [15DU] |  |  | IC90 [1, 4]: < 10 µg/mL; Ki [2, 5]: 10 to 1000 nM |
| NC(=O)Cc1cccc(CN2C(=O)N(Cc3cccc(CC(N)=O)c3)C(Cc3ccccc3)C(O)C(O)C2Cc2ccccc2)c1 (stereo not shown) [15DV] |  |  | IC90 [1, 4]: < 10 µg/mL; Ki [2, 5]: < 10 nM |
| COC(=O)Cc1cccc(CN2C(=O)N(Cc3cccc(CC(=O)OC)c3)C(Cc3ccccc3)C(O)C(O)C2Cc2ccccc2)c1 (stereo not shown) [15DW] | +++ (+++=<10 μg/mL) | < 10 |  |
| O=C1N(Cc2cccc(CCO)c2)C(Cc2ccccc2)C(O)C(O)C(Cc2ccccc2)N1Cc1cccc(CCO)c1 (stereo not shown) [15DX] | +++ (+++=<10 μg/mL) | < 10 |  |
| O=C1N(Cc2ccc(CO)cc2)C(Cc2ccccc2)C(O)C(O)C(Cc2ccccc2)N1Cc1ccccc1O (stereo not shown) [15EA] |  |  | IC90 [1, 4]: < 10 µg/mL; Ki [2, 5]: < 10 nM |
| O=C1N(Cc2cccc(CO)c2)C(Cc2ccccc2)C(O)C(O)C(Cc2ccccc2)N1Cc1ccccc1O (stereo not shown) [15EB] | +++ (+++=<10 μg/mL) | 10 to 1000 |  |
| N#Cc1cc(CN2C(=O)N(Cc3ccc(F)c(C#N)c3)C(Cc3ccccc3)C(O)C(O)C2Cc2ccccc2)ccc1F (stereo not shown) [15EC] |  |  | IC90 [1, 4]: < 10 µg/mL; Ki [2, 5]: 10 to 1000 nM |
| NC(=O)c1cc(CN2C(=O)N(Cc3ccc(F)c(C(N)=O)c3)C(Cc3ccccc3)C(O)C(O)C2Cc2ccccc2)ccc1F (stereo not shown) [15ED] | ++ (++=10 to 100 μg/mL) | < 10 |  |
| COC(=O)c1cc(CN2C(=O)N(Cc3ccc(F)c(C(=O)OC)c3)C(Cc3ccccc3)C(O)C(O)C2Cc2ccccc2)ccc1F (stereo not shown) [15EE] | + (+=>100 μg/mL) | < 10 |  |
| NC(=NO)c1cc(CN2C(=O)N(Cc3ccc(F)c(C(N)=NO)c3)C(Cc3ccccc3)C(O)C(O)C2Cc2ccccc2)ccc1F (stereo not shown) [15EF] | +++ (+++=<10 μg/mL) | < 10 |  |
| O=C1N(Cc2ccc(F)c(CO)c2)C(Cc2ccccc2)C(O)C(O)C(Cc2ccccc2)N1Cc1ccc(F)c(CO)c1 (stereo not shown) [15EG] | +++ (+++=<10 μg/mL) | < 10 |  |
| NC(=O)c1cc(CN2C(=O)N(Cc3ccc(F)c(C(N)=NO)c3)C(Cc3ccccc3)C(O)C(O)C2Cc2ccccc2)ccc1F (stereo not shown) [15EH] | +++ (+++=<10 μg/mL) | < 10 |  |
| CNC(=O)OCCCCCN1C(=O)N(CCCCCOC(=O)NC)C(Cc2ccccc2)C(O)C(O)C1Cc1ccccc1 (stereo not shown) [15EK] | ++ (++=10 to 100 μg/mL) | 10 to 1000 |  |
| CC1(C)CCC(C)(C)c2cc(CN3C(=O)N(Cc4ccc5c(c4)C(C)(C)CCC5(C)C)C(Cc4ccccc4)C(O)C(O)C3Cc3ccccc3)ccc21 (stereo not shown) [15EL] | ++/+ (The ++/+ is used in the cases where an IC90 was determined to be >50 μg/mL) | > 1000 |  |
| [N-]=[N+]=NCCCCCN1C(=O)N(CCCCCN=[N+]=[N-])C(Cc2ccccc2)C(O)C(O)C1Cc1ccccc1 (stereo not shown) [15EM] |  |  | IC90 [1, 4]: < 10 µg/mL; Ki [2, 5]: 10 to 1000 nM |
| CS(=O)(=O)NCCCCCN1C(=O)N(CCCCCNS(C)(=O)=O)C(Cc2ccccc2)C(O)C(O)C1Cc1ccccc1 (stereo not shown) [15EN] | ++/+ (The ++/+ is used in the cases where an IC90 was determined to be >50 μg/mL) | 10 to 1000 |  |
| NCCCCCN1C(=O)N(CCCCCN)C(Cc2ccccc2)C(O)C(O)C1Cc1ccccc1 (stereo not shown) [15EP] |  |  | IC90 [1, 4]: > 50 µg/mL; Ki [2, 5]: > 1000 nM |
| COC(=O)NCCCCCN1C(=O)N(CCCCCNC(=O)OC)C(Cc2ccccc2)C(O)C(O)C1Cc1ccccc1 (stereo not shown) [15EQ] | ++/+ (The ++/+ is used in the cases where an IC90 was determined to be >50 μg/mL) | 10 to 1000 |  |
